Assay: excess molar enthalpy (molar enthalpy of mixing); xn = mol fraction of the nth substance listed
Details: 293.15 K, 100 kPa

Cl/C=C/Cl + CCCCCCCCCCCCCC
Details | excess molar enthalpy [kcal/mol]
x1 = 0.1129 | 0.05
x1 = 0.1792 | 0.0877
x1 = 0.3112 | 0.14
x1 = 0.3404 | 0.153
x1 = 0.3809 | 0.165
x1 = 0.4345 | 0.181
x1 = 0.4786 | 0.193
x1 = 0.5019 | 0.2
x1 = 0.535 | 0.201
x1 = 0.5634 | 0.205
x1 = 0.5851 | 0.204
x1 = 0.6008 | 0.207
x1 = 0.6211 | 0.209
x1 = 0.6352 | 0.208
x1 = 0.6675 | 0.204
x1 = 0.6789 | 0.202
x1 = 0.7008 | 0.199
x1 = 0.7106 | 0.198
x1 = 0.7314 | 0.191
x1 = 0.747 | 0.188
x1 = 0.757 | 0.185
x1 = 0.7762 | 0.178
x1 = 0.8541 | 0.141
x1 = 0.8757 | 0.127
x1 = 0.9005 | 0.108
x1 = 0.9374 | 0.0746

Cl/C=C\Cl + CCCCCCCCCCCCCC
Details | excess molar enthalpy [kcal/mol]
x1 = 0.3157 | 0.229
x1 = 0.5126 | 0.327
x1 = 0.638 | 0.336
x1 = 0.7787 | 0.288
x1 = 0.8831 | 0.194
x1 = 0.923 | 0.139
x1 = 0.969 | 0.0657

Cl/C=C/Cl + CCCCCCC
Details | excess molar enthalpy [kcal/mol]
x1 = 0.1911 | 0.081
x1 = 0.2074 | 0.0851
x1 = 0.2453 | 0.102
x1 = 0.2905 | 0.111
x1 = 0.3272 | 0.128
x1 = 0.352 | 0.129
x1 = 0.3757 | 0.137
x1 = 0.4118 | 0.151
x1 = 0.4157 | 0.15
x1 = 0.452 | 0.158
x1 = 0.4756 | 0.158
x1 = 0.4978 | 0.161
x1 = 0.5334 | 0.162
x1 = 0.5472 | 0.163
x1 = 0.5627 | 0.165
x1 = 0.5821 | 0.162
x1 = 0.6074 | 0.164
x1 = 0.6429 | 0.157
x1 = 0.6534 | 0.156
x1 = 0.7038 | 0.145
x1 = 0.7761 | 0.125
x1 = 0.8005 | 0.117
x1 = 0.907 | 0.0655
x1 = 0.9624 | 0.0301

Cl/C=C\Cl + CCCCCCCCCCCC
Details | excess molar enthalpy [kcal/mol]
x1 = 0.2693 | 0.192
x1 = 0.4431 | 0.283
x1 = 0.6609 | 0.281
x1 = 0.7922 | 0.232
x1 = 0.851 | 0.191
x1 = 0.9026 | 0.139
x1 = 0.9588 | 0.0679

Cl/C=C/Cl + CCCCCCCCCC
Details | excess molar enthalpy [kcal/mol]
x1 = 0.0575 | 0.022
x1 = 0.1583 | 0.0636
x1 = 0.2175 | 0.0865
x1 = 0.2316 | 0.0944
x1 = 0.2585 | 0.106
x1 = 0.3396 | 0.132
x1 = 0.3972 | 0.152
x1 = 0.4202 | 0.16
x1 = 0.4829 | 0.168
x1 = 0.5312 | 0.179
x1 = 0.5522 | 0.178
x1 = 0.5739 | 0.175
x1 = 0.6031 | 0.175
x1 = 0.6375 | 0.178
x1 = 0.6555 | 0.176
x1 = 0.6923 | 0.165
x1 = 0.6977 | 0.166
x1 = 0.7284 | 0.163
x1 = 0.7393 | 0.161
x1 = 0.7653 | 0.148
x1 = 0.7812 | 0.144
x1 = 0.8229 | 0.127
x1 = 0.8478 | 0.116
x1 = 0.9335 | 0.0602
x1 = 0.9785 | 0.0213

— a compilation of properties of binary mixtures (doi:10.1021/je950317s)
